The source of these data is PMC7461116, “Synthesis, Anticonvulsant and Antinociceptive Activity of New Hybrid Compounds: Derivatives of 3-(3-Methylthiophen-2-yl)-pyrrolidine-2,5-dione” (International Journal of Molecular Sciences, 2020).

Molecules are shown by their SMILES. Counter-ions that a name gives are not always drawn. A value given as a limit tells only on which side of the number the result lay.

For data set [1], the system named is maximal electroshock seizures. The experiment in a line: Maximal electroshock seizure (MES) test. Conditions: Mus musculus; mice, ip, 100 mg/kg, 0.5 h; read-out: MES: number of mice protected/number of mice tested (converted). Type of data set: in vivo, mice. As for the experimental part: The MES test was performed as previously described. Stimuli (25 mA, 0.2 s, 50 Hz) were generated by a constant current stimulator (Rodent shocker, Type 221, Hugo Sachs Elektronik, Germany) and delivered with the use of auricular electrodes. During the stimulation, each mouse was restrained manually, and immediately after the stimulation gently released for observation. The endpoint was the tonic extension of the hind limbs. Mice not displaying hindlimb tonic extension were considered to be protected from seizure. The initial anticonvulsant screening of the tested compounds was performed at a fixed dose of 100 mg/kg (four mice per group). […] To evaluate the ED50, at least three groups of animals were injected with various doses of tested compounds. Each group consisted of six animals.
A general note: In the maximal electroshock model the usual endpoint is tonic extension of the hind limbs.

The subject of data set [2] is 6 Hz psychomotor seizures. The data set can be described thus: 6 Hz (32 mA) psychomotor seizure test. Type of data set: in vivo, mice. Conditions: 32 mA. An excerpt: Psychomotor seizures were induced via corneal stimulation (6 Hz, 32 mA, 0.2 ms rectangular pulse width, 3 s duration) using a constant-current device (ECT Unit 57800, Ugo Basile, Italy). A drop of 1% solution of lidocaine hydrochloride was applied to the mouse corneas before stimulation to provide local anesthesia and ensure optimal current conductivity. After the electrical stimulation, mice were gently released and observed for the presence or absence of seizure activity, being characterized by immobility associated with rearing, forelimb clonus, twitching of the vibrissae, stun, and Straub-tail. Lack of the above symptoms or their cessation within 10 s from the stimulation was considered as absence of seizure activity. The initial anticonvulsant screening of the tested compounds was performed at a fixed dose of 100 mg/kg (four mice per group). Then ED50 was calculated for active compounds as described above.

Data set [3] has as its system PTZ-induced clonic seizures. The experiment in a line: Subcutaneous pentylenetetrazole (scPTZ) seizure test. Conditions: mice, 100 mg/kg. Type of data set: in vivo. How it is done: Clonic convulsions were induced by the subcutaneous (sc) administration of PTZ at a dose of 100 mg/kg. After PTZ injection, the mice were placed separately and observed during the next 30 min for the occurrence of clonic seizures. Clonic seizures were defined as clonus of the whole body lasting more than 3 s, with an accompanying loss of righting reflex. The latency to first clonus, the number of seizure episodes, and mortality rate were noted and compared with vehicle-treated and drug-treated groups. The absence of clonic convulsions within the observed time period was interpreted as the compound’s ability to protect against PTZ-induced seizures.

For data set [4], the system named is motor impairment on rotarod. The data set can be described thus: Rotarod test (acute neurotoxicity, NT). Type of data set: in vivo. Conditions: ip, 100 mg/kg, 0.5 h. How it is done:
In this test mice were trained to balance on an accelerating rotarod that rotated at 10 rotations per minute (Rotarod apparatus, May Commat RR0711, Turkey; rod diameter: 3 cm). During the training session, the animals were placed on a rotating rod for 3 min with an unlimited number of trials. Proper experiment was conducted 24 h after the training trial. On the test day, trained mice were intraperitoneally pretreated with the test compound at a dose of 100 mg/kg and just before the MES test were tested on the rotarod. Neurotoxicity was indicated by the inability of the animal to maintain equilibration on the rod for 1 min. […] Each group consisted of six animals.

Data set [5] relates to acetic acid-induced writhing behavior. The experiment in a line: Acetic acid-induced writhing test. Type of data set: in vivo. Conditions: mice, ip. As for the experimental part: Mice were injected with the test compound or vehicle by intraperitoneally route (ip), and 30 min later, 0.9 % acetic acid solution was injected ip and the animals were placed into the glass beakers. The writhing response (lengthwise stretching of the torso, concave arching of the back, and extension of the hind limbs) was recorded for 30 min. The analgesic effect of the tested substances was determined by a decrease in the number of writhes observed and the results were expressed as percent inhibition of writhing behavior (as index of analgesia), and was calculated using the following formula: %Inhibition=(NA−NB)/NA×100, where NA—number of writhes in vehicle group, NB—number of writhes in drug-treated group.
In general terms: An intraperitoneal irritant provokes the stretching counted in writhing tests.

Data set [6] deals with latency time to pain reaction. The experiment in a line: Hot plate test. Type of data set: in vivo. Conditions: mice, ip, 30 mg/kg. How it is done:
The hot plate test was carried out based on the Eddy and Leimbach (1953) method. In this test, the apparatus was equipped with an electrically heated surface with a temperature controller that maintains surface temperature to a set point. Herein, the temperature was set at 55 °C. The animals were treated ip either with the test compounds, or vehicle 30 min before placing the animal on a hot plate apparatus. Latency time to pain reaction, i.e., the time until the animal licked its back paws or jumped was recorded by means of the stopwatch.
A general note: Hot-plate and tail-flick tests time the reaction to a heat stimulus.

In data set [7] the test system is Voltage-Sensitive Na+ Channel (site 2). The data set can be described thus: Radioligand binding, [3H]BTX, Cerep. Conditions: 100 µM, rat cerebral cortex synaptoneurosomal preparations. As for the experimental part: (§1) Binding and functional studies were performed commercially in Cerep Laboratories (Poitiers, France) using testing procedures described elsewhere (Na^+ channel-site 2 [27], L-type Ca^2+ channel, dihydropyridine site, TRPV1 (VR1) (h) (antagonist effect), GABA transporter (GAT)). All experiments were performed in duplicate.

For data set [8], the system named is Voltage-Sensitive Ca2+ Channel L-type (dihydropyridine site). The data set can be described thus: Radioligand binding, [3H]nitrendipine, Cerep. Conditions: 100 µM, rat cerebral cortex synaptoneurosomal preparations. How it is done:
as §1

The subject of another data set is GABA Transporter (GAT). The experiment in a line: Radioligand binding, [3H]GABA, Cerep. Conditions: 100 µM, rat cerebral cortex synaptoneurosomal preparations. As for the experimental part:
as §1

The target in another data set is T1, TRPV1 receptor (Homo sapiens, UniProt Q8NER1).
T1 construct: Cerep Laboratories (Poitiers, France)
T1 sequence (Q8NER1 whole entry): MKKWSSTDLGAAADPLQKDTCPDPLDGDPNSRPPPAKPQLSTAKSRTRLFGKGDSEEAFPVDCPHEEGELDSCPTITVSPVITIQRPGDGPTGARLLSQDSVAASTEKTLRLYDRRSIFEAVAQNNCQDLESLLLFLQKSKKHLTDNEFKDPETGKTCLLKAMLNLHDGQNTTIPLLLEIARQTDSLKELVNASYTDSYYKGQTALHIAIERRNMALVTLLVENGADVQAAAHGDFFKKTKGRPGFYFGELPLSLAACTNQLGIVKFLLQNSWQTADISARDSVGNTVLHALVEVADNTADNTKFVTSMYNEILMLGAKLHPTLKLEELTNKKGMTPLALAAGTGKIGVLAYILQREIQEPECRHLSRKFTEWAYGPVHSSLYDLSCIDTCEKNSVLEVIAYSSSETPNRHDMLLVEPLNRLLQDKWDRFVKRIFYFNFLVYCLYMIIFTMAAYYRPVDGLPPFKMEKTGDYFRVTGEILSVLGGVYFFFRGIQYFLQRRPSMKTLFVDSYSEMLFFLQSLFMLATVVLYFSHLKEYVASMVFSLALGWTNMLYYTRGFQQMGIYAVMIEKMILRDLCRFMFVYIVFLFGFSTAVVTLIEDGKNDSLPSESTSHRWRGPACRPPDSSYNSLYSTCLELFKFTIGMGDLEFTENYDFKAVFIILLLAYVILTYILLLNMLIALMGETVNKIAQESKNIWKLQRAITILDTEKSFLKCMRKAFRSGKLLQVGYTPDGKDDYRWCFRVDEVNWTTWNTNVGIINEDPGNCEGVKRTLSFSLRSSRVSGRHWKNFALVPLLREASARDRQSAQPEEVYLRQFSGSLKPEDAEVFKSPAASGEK
The data set can be described thus: TRPV1 (VR1) (h) antagonist effect, Cerep. Type of data set: biochemical. Conditions: 100 µM. As for the experimental part:
as §1

Data set [9] is described as follows: Hepatotoxicity, PrestoBlue viability assay. Type of data set: cell-based, human. Conditions: human, Hep G2 cells, 1–100 μM, read-out: Hep G2 cell viability. How it is done: Hepatotoxicity of tested compounds was assessed in PrestoBlue (Thermo Fisher Scientific, Waltham, MA, USA) Experiments on microplate reader (SpectraMax® iD3, Molecular Devices, San Jose, CA, USA) using human hepatocellular carcinoma cells (Hep G2) ATCC® […]. The cells were cultured in standard conditions (37 °C, 5% CO2), in Dulbecco’s Modified Eagle’s Medium-high glucose, (DMEM, Gibco, Thermo Fisher Scientific, Waltham, MA, USA) supplemented with 10% fetal bovine serum (Thermo Fisher Scientific, Waltham, MA, USA), with added 100 IU/mL penicillin (Sigma Aldrich, Steinheim, Germany) and 100 µg/mL streptomycin (Sigma Aldrich). PrestoBlue reagent is a resazurin-based solution that functions as a cell viability indicator. Metabolically active cells are capable of reducing the PrestoBlue reagent, with the colorimetric changes used as an indicator to quantify the viability of cells in culture. This change can be determined by measuring the fluorescence. After 24 h of incubation with the compounds PrestoBlue reagent was added to wells of a microplate. After 20 min of incubation at 37 °C, the fluorescence intensity (EX 530; EM 580 nm) was measured in a plate reader. Viability values were calculated as a percentage of live cells with respect to the control sample (DMSO). The negative control was medium without cells. Astemizole was used as a reference substance.

A short description of data set [10]: Rotarod test (acute neurotoxicity, NT). Conditions: mouse, in vivo, mice ip.
For data set [11], the system named is maximal electroshock seizures. Conditions: cited from earlier work.
Data set [12] relates to PTZ-induced clonic seizures. Also on record: method as in PMID 25933955. Conditions: cited from earlier work.
Data set [13] has as its system latency time to pain reaction. Also on record: method as in PMID 25933955. Conditions: cited from earlier work.
Data set [14] concerns motor impairment on rotarod. Conditions: cited from earlier work.

One may read the ED50 as the dose at which the effect has come halfway, by size or by number of responders. Lower therefore signals an effect at a small dose. One may read the viability as a read-out of living cells in per cent, often relative to untreated cells. By TD50 is commonly meant the 50% point of the dose-response relation for the toxic effect studied. The low end stands for harm at a small dose, the high end for harm only at a large dose. `Cc1ccsc1C1CC(=O)N(CCN2CCOCC2)C1=O` (racemic) [Compound 3, (R,S)-3-(3-Methylthiophen-2-yl)-1-(2-morpholinoethyl)pyrrolidine-2,5-dione hydrochloride]: the responders at 100 mg/kg was 25% in data set [1] and 100% in data set [2] (Mus musculus, mice, ip, 100 mg/kg, 0.5 h, read-out: 6 Hz: number of mice protected/number of mice tested (converted)). Moreover, in [2] (Mus musculus, mice ip, 95% confidence limit in brackets), the ED50 amounted to 74.3 mg/kg. Moreover, the “6 Hz: tested animals protected” value in data set [2] (mice, ip, 100 mg/kg, 0.5 h) is listed as 100%. Moreover, in data set [3], the “scPTZ: tested animals protected” value was 50%. Further, the “scPTZ: latency time to first seizure episode” value in data set [3] (control 436.8 ± 91.94 s) was found to be 1435 ± 234.9 s. The “scPTZ: prolongation of latency time to first seizure episode” value in data set [3] (vs control, p < 0.001) worked out at 228%. Besides, in [4], the “NT: number of mice with motor impairment/number of mice tested” value was 0/4. The “Reduction of number of writhes (inhibition of writhing behavior)” value in data set [5] (30 mg/kg) amounted to 34%; in data set [5] (45 mg/kg), 39%. Further, in [6], the “Hot plate: prolongation of latency time to pain reaction” value is “inactive”. Also, the “% Inhibition of Control Specific Binding, Voltage-Sensitive Na+ Channel (site 2)” value in [7] came to 15.6%. In data set [8], the “% Inhibition of Control Specific Binding, Voltage-Sensitive Ca2+ Channel L-typ” value is −1.1%. Also, in the data set on GABA Transporter (GAT), the “% Inhibition of Control Specific Binding, GABA Transporter (GAT)” value is given as −1.1%. Moreover, the TRPV1 antagonist effect at TRPV1 receptor turned out to be 14.8%. For the same compound, the viability at 24 h in data set [9] is above 94%. For the same compound, in data set [10], the TD50 at 0.5 h is above 200 mg/kg.

For `Cc1ccsc1C(=CCCN1CCC[C@@H](C(=O)O)C1)c1sccc1C` [tiagabine], in data set [11], the “MES: protection in words” value is given as “did not show protection”. Also, the “scPTZ: activity in words” value in data set [12] is reported as “active”. Further, the “Hot plate: dose at which analgesic activity was observed” value in [13] is recorded as 8 mg/kg. The “Rotarod: motor impairment in words” value in data set [14] is “significant motor impairment”.
